Assays:
GSK-3β [1] = biological target: T1, GSK-3β (Homo sapiens, UniProt P49841); test: Kinetics of GSK-3β inhibition (ADP-Glo, varied ATP); type: biochemical; design: purchased Promega
Text: Each data point was collected in triplicate.
Kinetics of GSK-3β inhibition by compound 36
diverse ATP concentrations to determine the mechanism of enzyme - inhibitor interaction. The
(1 picture or pasted object on this page, not shown here) […]

CDK7/cyclinH/MAT1 = biological target: T2, CDK7/cyclinH/MAT1 (Homo sapiens, UniProt P50613); test: Kinase selectivity, radiometric [Km ATP] KinaseProfiler; type: biochemical
T2 construct: purchased Eurofins (KinaseProfiler service)
Procedure: (§1) We selected those kinases with the greatest potential for interaction based on structural homology, as indicated by the ChemPartner panel.
(§2) Figure 7 Kinase selectivity for compound 36. Data are presented as percent of kinases’ activity in the presence of 1 μM of compound 36. Kinases’ panel (CMGC group, human enzymes): CDK1/cyclinB, CDK2/cyclinA, CDK4/cyclinD3, CDK6/cyclinD3, CDK7/cyclinH/MAT1, CDK9/cyclinT1, DYRK1A, DYRK1B, GSK-3α, GSK-3β, JNK2α2, JNK3, MAPK1, MAPK2, SAPK2a(T106M), SAPK2b, SAPK3.
(§3) Selectivity studies were performed at Eurofins in Kinase Enzymatic Radiometric [Km ATP]
(§4) Kinase Profiler Lead Hunter Assay. The percentage of enzymatic activity was measured at the
(§5) concentration of 1 µM of compound 36 in duplicate for 17 selected kinases.
(§6) Table S12. Inhibitory activity of compound 36 against selected kinases.
(§7) *Where n = 2, the value reported here is actually range / √ 2.

GSK-3α = biological target: T3, GSK-3α (Homo sapiens, UniProt P49840); test: as above; type: biochemical; details: duplicate
T3 construct: purchased Eurofins (KinaseProfiler service)
Procedure: as §1, §2, §3, §4, §5, §6, §7

SAPK2a(T106M) = biological target: T4, SAPK2a(T106M) (Homo sapiens, UniProt Q16539, T106M); test: as above; type: biochemical
T4 construct: purchased Eurofins (KinaseProfiler service)
Procedure: as §1, §2, §3, §4, §5, §6, §7

JNK3 = biological target: T5, JNK3 (Homo sapiens, UniProt P53779); test: as above; type: biochemical
T5 construct: purchased Eurofins (KinaseProfiler service)
Procedure: as §1, §2, §3, §4, §5, §6, §7

DYRK1B = biological target: T6, DYRK1B (Homo sapiens, UniProt Q9Y463); test: as above; type: biochemical; details: duplicate
T6 construct: purchased Eurofins (KinaseProfiler service)
Procedure: as §1, §2, §3, §4, §5, §6, §7

JNK2α2 = biological target: T7, JNK2α2 (Homo sapiens, UniProt P45984); test: as above; type: biochemical
T7 construct: purchased Eurofins (KinaseProfiler service)
Procedure: as §1, §2, §3, §4, §5, §6, §7

SAPK2b = biological target: T8, SAPK2b (Homo sapiens, UniProt Q15759); test: as above; type: biochemical
T8 construct: purchased Eurofins (KinaseProfiler service)
Procedure: as §1, §2, §3, §4, §5, §6, §7

CDK2/cyclinA = biological target: T9, CDK2/cyclinA (Homo sapiens, UniProt P24941); test: as above; type: biochemical
T9 construct: purchased Eurofins (KinaseProfiler service)
Procedure: as §1, §2, §3, §4, §5, §6, §7

CDK9/cyclin T1 = biological target: T10, CDK9/cyclin T1 (Homo sapiens, UniProt P50750); test: as above; type: biochemical
T10 construct: purchased Eurofins (KinaseProfiler service)
Procedure: as §1, §2, §3, §4, §5, §6, §7

CDK4/cyclinD3 = biological target: T11, CDK4/cyclinD3 (Homo sapiens, UniProt P11802); test: as above; type: biochemical
T11 construct: purchased Eurofins (KinaseProfiler service)
Procedure: as §1, §2, §3, §4, §5, §6, §7

MAPK1 = biological target: T12, MAPK1 (Homo sapiens, UniProt P27361); test: as above; type: biochemical
T12 construct: purchased Eurofins (KinaseProfiler service)
Procedure: as §1, §2, §3, §4, §5, §6, §7

DYRK1A = biological target: T13, DYRK1A (Homo sapiens, UniProt Q13627); test: as above; type: biochemical; details: duplicate
T13 construct: purchased Eurofins (KinaseProfiler service)
Procedure: as §1, §2, §3, §4, §5, §6, §7

SAPK3 = biological target: T14, SAPK3 (Homo sapiens, UniProt P53778); test: as above; type: biochemical
T14 construct: purchased Eurofins (KinaseProfiler service)
Procedure: as §1, §2, §3, §4, §5, §6, §7

CDK1/cyclinB = biological target: T15, CDK1/cyclinB (Homo sapiens, UniProt P06493); test: as above; type: biochemical
T15 construct: purchased Eurofins (KinaseProfiler service)
Procedure: as §1, §2, §3, §4, §5, §6, §7

CDK6/cyclinD3 = biological target: T16, CDK6/cyclinD3 (Homo sapiens, UniProt Q00534); test: as above; type: biochemical
T16 construct: purchased Eurofins (KinaseProfiler service)
Procedure: as §1, §2, §3, §4, §5, §6, §7

MAPK2 = biological target: T17, MAPK2 (Homo sapiens, UniProt P28482); test: as above; type: biochemical
T17 construct: purchased Eurofins (KinaseProfiler service)
Procedure: as §1, §2, §3, §4, §5, §6, §7

GSK-3β [2] = biological target: T1, GSK-3β; test: biochemical
Procedure: as §1, §2, §3, §4, §5, §6, §7

T1 sequence (P49841 whole entry): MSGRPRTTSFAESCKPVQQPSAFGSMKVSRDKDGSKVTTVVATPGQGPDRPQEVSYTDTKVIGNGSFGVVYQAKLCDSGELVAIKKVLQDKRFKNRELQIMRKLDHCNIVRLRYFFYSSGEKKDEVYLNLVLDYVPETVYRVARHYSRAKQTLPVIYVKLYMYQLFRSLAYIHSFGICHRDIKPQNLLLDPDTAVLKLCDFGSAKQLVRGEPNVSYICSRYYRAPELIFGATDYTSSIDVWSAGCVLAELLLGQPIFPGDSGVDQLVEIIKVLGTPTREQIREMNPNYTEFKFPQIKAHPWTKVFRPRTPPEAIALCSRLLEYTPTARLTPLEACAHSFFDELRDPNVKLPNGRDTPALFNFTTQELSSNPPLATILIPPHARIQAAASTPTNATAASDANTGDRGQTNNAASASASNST
T7 sequence (P45984 whole entry): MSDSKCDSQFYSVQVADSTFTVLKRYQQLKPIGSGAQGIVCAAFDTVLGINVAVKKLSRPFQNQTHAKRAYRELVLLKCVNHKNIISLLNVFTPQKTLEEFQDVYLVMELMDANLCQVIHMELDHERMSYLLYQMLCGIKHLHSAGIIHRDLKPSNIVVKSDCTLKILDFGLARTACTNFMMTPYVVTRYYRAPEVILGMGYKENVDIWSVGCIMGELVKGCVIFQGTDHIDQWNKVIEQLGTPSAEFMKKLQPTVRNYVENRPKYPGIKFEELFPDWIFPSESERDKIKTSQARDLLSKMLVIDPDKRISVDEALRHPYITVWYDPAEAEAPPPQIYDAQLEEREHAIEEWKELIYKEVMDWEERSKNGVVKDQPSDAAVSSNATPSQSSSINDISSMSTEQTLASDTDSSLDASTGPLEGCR
T5 sequence (P53779 whole entry): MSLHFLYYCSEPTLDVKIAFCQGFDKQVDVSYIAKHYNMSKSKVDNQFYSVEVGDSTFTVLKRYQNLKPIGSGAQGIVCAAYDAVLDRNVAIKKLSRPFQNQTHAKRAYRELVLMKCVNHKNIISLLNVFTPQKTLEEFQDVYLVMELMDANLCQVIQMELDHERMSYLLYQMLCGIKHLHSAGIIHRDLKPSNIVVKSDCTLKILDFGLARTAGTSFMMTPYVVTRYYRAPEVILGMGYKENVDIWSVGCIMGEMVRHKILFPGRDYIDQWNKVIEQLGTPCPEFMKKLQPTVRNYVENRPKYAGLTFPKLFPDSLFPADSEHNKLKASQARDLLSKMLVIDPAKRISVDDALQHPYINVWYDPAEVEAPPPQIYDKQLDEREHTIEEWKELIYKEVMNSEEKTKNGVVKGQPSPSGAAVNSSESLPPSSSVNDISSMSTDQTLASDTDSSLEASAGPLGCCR
T16 sequence (Q00534 whole entry): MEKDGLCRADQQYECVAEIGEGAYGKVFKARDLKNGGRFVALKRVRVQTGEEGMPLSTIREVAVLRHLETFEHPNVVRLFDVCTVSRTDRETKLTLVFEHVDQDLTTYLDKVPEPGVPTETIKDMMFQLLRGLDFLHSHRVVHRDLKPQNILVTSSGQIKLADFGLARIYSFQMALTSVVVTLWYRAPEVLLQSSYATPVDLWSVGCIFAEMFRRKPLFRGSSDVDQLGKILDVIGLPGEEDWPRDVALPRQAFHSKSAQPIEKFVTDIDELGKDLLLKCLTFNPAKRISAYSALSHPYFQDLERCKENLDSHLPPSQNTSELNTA
T16 sequence (P30281 whole entry partner): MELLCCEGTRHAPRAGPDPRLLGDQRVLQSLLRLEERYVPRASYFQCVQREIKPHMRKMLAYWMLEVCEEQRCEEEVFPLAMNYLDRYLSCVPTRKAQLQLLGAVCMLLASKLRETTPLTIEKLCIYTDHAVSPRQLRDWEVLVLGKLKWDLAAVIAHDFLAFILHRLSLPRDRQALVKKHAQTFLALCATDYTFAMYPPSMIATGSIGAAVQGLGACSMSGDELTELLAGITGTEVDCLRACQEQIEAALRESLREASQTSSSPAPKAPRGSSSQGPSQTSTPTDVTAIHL
T14 sequence (P53778 whole entry): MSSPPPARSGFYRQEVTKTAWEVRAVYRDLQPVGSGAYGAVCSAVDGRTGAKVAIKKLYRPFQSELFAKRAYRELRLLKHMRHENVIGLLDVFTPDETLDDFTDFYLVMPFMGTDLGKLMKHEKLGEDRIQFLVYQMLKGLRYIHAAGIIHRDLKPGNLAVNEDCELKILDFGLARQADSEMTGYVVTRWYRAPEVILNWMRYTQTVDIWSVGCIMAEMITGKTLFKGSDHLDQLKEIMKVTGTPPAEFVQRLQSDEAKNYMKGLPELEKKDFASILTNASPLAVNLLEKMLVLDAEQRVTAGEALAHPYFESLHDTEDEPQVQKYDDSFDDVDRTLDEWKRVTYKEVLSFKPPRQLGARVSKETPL
T10 sequence (P50750 whole entry): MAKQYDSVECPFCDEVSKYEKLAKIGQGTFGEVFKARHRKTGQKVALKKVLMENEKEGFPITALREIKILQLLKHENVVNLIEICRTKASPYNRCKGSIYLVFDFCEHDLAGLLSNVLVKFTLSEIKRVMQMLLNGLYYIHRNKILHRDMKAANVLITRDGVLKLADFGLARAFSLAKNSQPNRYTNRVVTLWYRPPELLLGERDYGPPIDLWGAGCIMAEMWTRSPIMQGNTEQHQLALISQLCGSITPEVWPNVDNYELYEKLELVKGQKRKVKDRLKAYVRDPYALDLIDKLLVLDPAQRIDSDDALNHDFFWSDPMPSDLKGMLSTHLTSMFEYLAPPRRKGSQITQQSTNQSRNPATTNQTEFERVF
T10 sequence (O60563 whole entry partner): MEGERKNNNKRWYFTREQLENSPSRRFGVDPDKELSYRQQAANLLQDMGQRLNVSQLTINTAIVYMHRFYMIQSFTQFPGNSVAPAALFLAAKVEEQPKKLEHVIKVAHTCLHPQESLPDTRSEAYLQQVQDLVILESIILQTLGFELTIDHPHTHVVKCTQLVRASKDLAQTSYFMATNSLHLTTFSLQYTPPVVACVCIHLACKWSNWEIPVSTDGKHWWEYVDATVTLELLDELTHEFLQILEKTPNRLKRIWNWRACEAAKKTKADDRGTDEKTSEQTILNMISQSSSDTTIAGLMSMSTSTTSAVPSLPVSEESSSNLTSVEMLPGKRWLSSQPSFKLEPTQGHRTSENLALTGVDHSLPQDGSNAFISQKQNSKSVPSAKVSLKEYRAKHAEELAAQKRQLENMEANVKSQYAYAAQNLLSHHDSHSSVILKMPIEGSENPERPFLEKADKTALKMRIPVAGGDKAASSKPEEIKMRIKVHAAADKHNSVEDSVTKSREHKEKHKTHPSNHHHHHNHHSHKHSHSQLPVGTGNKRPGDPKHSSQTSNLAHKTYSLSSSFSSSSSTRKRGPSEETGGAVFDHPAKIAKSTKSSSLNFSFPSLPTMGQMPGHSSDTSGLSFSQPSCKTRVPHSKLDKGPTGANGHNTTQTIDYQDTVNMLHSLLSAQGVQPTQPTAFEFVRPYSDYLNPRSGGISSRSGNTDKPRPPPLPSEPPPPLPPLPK
T4 sequence (Q16539 whole entry T106M): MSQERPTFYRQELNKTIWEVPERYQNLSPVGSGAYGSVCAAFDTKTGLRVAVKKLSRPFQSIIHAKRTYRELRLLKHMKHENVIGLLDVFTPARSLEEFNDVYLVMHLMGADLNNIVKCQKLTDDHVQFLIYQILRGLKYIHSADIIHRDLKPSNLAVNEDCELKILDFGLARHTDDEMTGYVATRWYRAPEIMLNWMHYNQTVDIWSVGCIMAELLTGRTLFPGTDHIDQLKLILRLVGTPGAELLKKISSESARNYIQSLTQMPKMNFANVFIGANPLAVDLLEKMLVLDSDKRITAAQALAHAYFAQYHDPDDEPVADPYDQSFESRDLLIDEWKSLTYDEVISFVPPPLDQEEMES
T17 sequence (P28482 whole entry): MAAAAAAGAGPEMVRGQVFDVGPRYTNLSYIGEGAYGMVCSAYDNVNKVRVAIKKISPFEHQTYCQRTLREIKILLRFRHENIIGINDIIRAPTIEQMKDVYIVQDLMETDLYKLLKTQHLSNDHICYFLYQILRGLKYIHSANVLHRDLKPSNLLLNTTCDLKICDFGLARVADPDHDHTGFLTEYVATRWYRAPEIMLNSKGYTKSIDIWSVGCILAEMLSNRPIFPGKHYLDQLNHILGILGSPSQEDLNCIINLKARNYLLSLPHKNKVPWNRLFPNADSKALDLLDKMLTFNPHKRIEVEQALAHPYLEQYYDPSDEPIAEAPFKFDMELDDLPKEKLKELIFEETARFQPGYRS
T12 sequence (P27361 whole entry): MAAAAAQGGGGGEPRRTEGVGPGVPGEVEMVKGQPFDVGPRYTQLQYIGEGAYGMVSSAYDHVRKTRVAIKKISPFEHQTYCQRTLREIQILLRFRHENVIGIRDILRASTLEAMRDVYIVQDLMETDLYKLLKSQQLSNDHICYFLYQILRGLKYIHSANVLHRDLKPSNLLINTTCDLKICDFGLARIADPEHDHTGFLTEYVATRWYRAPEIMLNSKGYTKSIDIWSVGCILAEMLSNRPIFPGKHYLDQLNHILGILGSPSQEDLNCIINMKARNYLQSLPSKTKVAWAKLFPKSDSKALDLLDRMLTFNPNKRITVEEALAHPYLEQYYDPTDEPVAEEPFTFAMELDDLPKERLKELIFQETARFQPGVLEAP
T8 sequence (Q15759 whole entry): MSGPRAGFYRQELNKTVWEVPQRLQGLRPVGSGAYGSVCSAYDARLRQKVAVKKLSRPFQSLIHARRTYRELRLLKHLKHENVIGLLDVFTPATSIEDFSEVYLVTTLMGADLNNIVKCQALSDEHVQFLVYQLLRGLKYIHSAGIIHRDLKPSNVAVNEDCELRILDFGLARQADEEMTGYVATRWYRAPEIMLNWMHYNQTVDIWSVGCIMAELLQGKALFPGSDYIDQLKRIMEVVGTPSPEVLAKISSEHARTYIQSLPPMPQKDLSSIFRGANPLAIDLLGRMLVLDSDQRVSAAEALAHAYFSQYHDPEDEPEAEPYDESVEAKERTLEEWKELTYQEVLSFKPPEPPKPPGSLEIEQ

## O=C(Nc1cc(-c2ccc(-c3ncon3)s2)ccn1)C1CC1 [Compound 36, N-(4-(5-(1,2,4-Oxadiazol-3-yl)thiophen-2-yl)pyridin-2-yl)cyclopropanecarboxamide]
GSK-3β [1]
  Ki: 60.3 nM
GSK-3β [1]; Lineweaver–Burk and Cornish–Bowden plots, varied ATP
  type of inhibition: ATP-competitive
CDK7/cyclinH/MAT1
  inhibition at 1 µM: < 50%
CDK7/cyclinH/MAT1; duplicate
  % of enzyme activity at 1μM of 36 ±SD, CDK7/cyclinH/ MAT1: 93±7%
GSK-3α
  % of enzyme activity at 1μM of 36 ±SD, GSK-3α: 2±1%
SAPK2a(T106M)
  inhibition at 1 µM: < 50%
SAPK2a(T106M); duplicate
  % of enzyme activity at 1μM of 36 ±SD, SAPK2a(T106M): 95±7%
JNK3
  inhibition at 1 µM: < 50%
JNK3; duplicate
  % of enzyme activity at 1μM of 36 ±SD, JNK3: 73±6%
DYRK1B
  % of enzyme activity at 1μM of 36 ±SD, DYRK1B: 26±6%
JNK2α2
  inhibition at 1 µM: < 50%
JNK2α2; duplicate
  % of enzyme activity at 1μM of 36 ±SD, JNK2α2: 100±7%
SAPK2b
  inhibition at 1 µM: < 50%
SAPK2b; duplicate
  % of enzyme activity at 1μM of 36 ±SD, SAPK2b: 100±2%
CDK2/cyclinA
  inhibition at 1 µM: 63%
CDK2/cyclinA; duplicate
  % of enzyme activity at 1μM of 36 ±SD, CDK2/cyclinA: 37±1%
CDK9/cyclin T1
  inhibition at 1 µM: 84%
CDK9/cyclin T1; duplicate
  % of enzyme activity at 1μM of 36 ±SD, CDK9/cyclin T1: 16±2%
CDK4/cyclinD3
  inhibition at 1 µM: < 50%
CDK4/cyclinD3; duplicate
  % of enzyme activity at 1μM of 36 ±SD, CDK4/cyclinD3: 97±9%
MAPK1
  inhibition at 1 µM: < 50%
MAPK1; duplicate
  % of enzyme activity at 1μM of 36 ±SD, MAPK1: 100±1%
DYRK1A
  % of enzyme activity at 1μM of 36 ±SD, DYRK1A: 11±1%
SAPK3; 1 μM, duplicate
  % of enzyme activity at 1μM of 36 ±SD, SAPK3: 50±3%
SAPK3; read-out: inhibition of SAPK3
  inhibition at 1 µM: < 50%
CDK1/cyclinB
  inhibition at 1 µM: 58%
CDK1/cyclinB; duplicate
  % of enzyme activity at 1μM of 36 ±SD, CDK1/cyclinB: 42±4%
CDK6/cyclinD3
  inhibition at 1 µM: < 50%
CDK6/cyclinD3; duplicate
  % of enzyme activity at 1μM of 36 ±SD, CDK6/cyclinD3: 90±1%
MAPK2
  inhibition at 1 µM: < 50%
MAPK2; duplicate
  % of enzyme activity at 1μM of 36 ±SD, MAPK2: 98±6%
GSK-3β [2]; 1 μM, duplicate
  % of enzyme activity at 1μM of 36 ±SD, GSK-3β: 5±1%
GSK-3β [2]; read-out: inhibition of GSK-3β
  inhibition at 1 µM: 92%
